System: MV-4-11 cells
Assay: Gene expression microarray analysis (Affymetrix PrimeView) and GSEA
Format: cell-based, human
Set-up: RFU PODN (11730768_x_at) / Fold change /veh PODN (11730768_x_at) / RFU LINC00158 (11744669_a_at) / Fold change /veh LINC00158 (11744669_a_at) / RFU DUSP10 (11751237_a_at) / Fold change /veh DUSP10 (11751237_a_at) / RFU ID3 (11757404_x_at) / Fold change /veh ID3 (11757404_x_at) / RFU PLEKHG5 (11737974_s_at) / Fold change /veh PLEKHG5 (11737974_s_at) / RFU LRRC4B (11730491_at) / Fold change /veh LRRC4B (11730491_at) / RFU GIMAP4 (11747438_a_at) / Fold change /veh GIMAP4 (11747438_a_at) / RFU KRT8 (11758183_x_at) / Fold change /veh KRT8 (11758183_x_at) / RFU CNN1 (11734310_a_at) / Fold change /veh CNN1 (11734310_a_at) / RFU VPS37D (11726825_at) / Fold change /veh VPS37D (11726825_at) / RFU C10orf10 (11716522_x_at) / Fold change /veh C10orf10 (11716522_x_at) / RFU KIR2DL2 /// KIR2DL4 /// KIR2DL5A /// KIR2DL5B /// KIR2DS1 /// KIR2DS2 /// KIR2DS3 /// KIR2DS4 /// KIR3DL3 /// KIR3DL3 /// KIR3DS1 (11738374_at) / Fold change /veh KIR2DL2 /// KIR2DL4 /// KIR2DL5A /// KIR2DL5B /// KIR2DS1 /// KIR2DS2 /// KIR2DS3 /// KIR2DS4 /// KIR3DL3 /// KIR3DL3 /// KIR3DS1 (11738374_at) / RFU C1QL1 (11718748_at) / Fold change /veh C1QL1 (11718748_at) / RFU TMPRSS4 (11747572_a_at) / Fold change /veh TMPRSS4 (11747572_a_at) / RFU HAMP (11756126_x_at) / Fold change /veh HAMP (11756126_x_at) / RFU RNFT2 (11725882_a_at) / Fold change /veh RNFT2 (11725882_a_at) / RFU NR4A2 (11747474_a_at) / Fold change /veh NR4A2 (11747474_a_at) / RFU ABCC12 (11746883_a_at) / Fold change /veh ABCC12 (11746883_a_at) / RFU TMEM136 (11760407_x_at) / Fold change /veh TMEM136 (11760407_x_at) / RFU CLDN22 /// WWC2 (11732394_at) / Fold change /veh CLDN22 /// WWC2 (11732394_at) / RFU HLA-DPB1 (11760878_x_at) / Fold change /veh HLA-DPB1 (11760878_x_at) / RFU SPINT1 (11716480_a_at) / Fold change /veh SPINT1 (11716480_a_at) / RFU GAP43 (11754022_s_at) / Fold change /veh GAP43 (11754022_s_at) / RFU A4GNT (11735810_at) / Fold change /veh A4GNT (11735810_at) / RFU PRB3 (11715151_x_at) / Fold change /veh PRB3 (11715151_x_at) / RFU TUBB4B (11761932_at) / Fold change /veh TUBB4B (11761932_at) / RFU CAPN14 (11732068_a_at) / Fold change /veh CAPN14 (11732068_a_at) / RFU TMCC2 (11721928_a_at) / Fold change /veh TMCC2 (11721928_a_at) / RFU IRGQ (11745062_a_at) / Fold change /veh IRGQ (11745062_a_at) / RFU FAM174B (11720279_a_at) / Fold change /veh FAM174B (11720279_a_at) / RFU TMPRSS4 (11748680_a_at) / Fold change /veh TMPRSS4 (11748680_a_at) / RFU FAM212B (11763350_a_at) / Fold change /veh FAM212B (11763350_a_at) / RFU PLEKHG5 (11743358_a_at) / Fold change /veh PLEKHG5 (11743358_a_at) / RFU ZSCAN30 (11745921_a_at) / Fold change /veh ZSCAN30 (11745921_a_at) / RFU CMKLR1 (11741424_a_at) / Fold change /veh CMKLR1 (11741424_a_at) / RFU LOC101060620 /// MAPK8IP1 (11723275_at) / Fold change /veh LOC101060620 /// MAPK8IP1 (11723275_at) / RFU SPTSSB (11747773_x_at) / Fold change /veh SPTSSB (11747773_x_at) / RFU PRSS12 (11739890_at) / Fold change /veh PRSS12 (11739890_at) / RFU BIN1 (11741810_x_at) / Fold change /veh BIN1 (11741810_x_at) / RFU WNT11 (11732464_a_at) / Fold change /veh WNT11 (11732464_a_at) / RFU C10orf10 (11716521_a_at) / Fold change /veh C10orf10 (11716521_a_at) / RFU C5orf56 (11738089_at) / Fold change /veh C5orf56 (11738089_at) / RFU CYB561 (11721691_x_at) / Fold change /veh CYB561 (11721691_x_at) / RFU ANKRD19P (11752326_a_at) / Fold change /veh ANKRD19P (11752326_a_at) / RFU OR2T12 /// OR2T33 /// OR2T8 (11738714_s_at) / Fold change /veh OR2T12 /// OR2T33 /// OR2T8 (11738714_s_at) / RFU VCAN (11748164_a_at) / Fold change /veh VCAN (11748164_a_at) / RFU JSRP1 (11732532_at) / Fold change /veh JSRP1 (11732532_at) / RFU KRTAP10-11 (11738290_x_at) / Fold change /veh KRTAP10-11 (11738290_x_at) / RFU MYO3A (11730013_a_at) / Fold change /veh MYO3A (11730013_a_at) / RFU EBF3 (11725865_a_at) / Fold change /veh EBF3 (11725865_a_at) / RFU CAMK2N1 (11719241_x_at) / Fold change /veh CAMK2N1 (11719241_x_at) / RFU C5orf56 (11738088_a_at) / Fold change /veh C5orf56 (11738088_a_at) / RFU OLFML3 (11715873_a_at) / Fold change /veh OLFML3 (11715873_a_at) / RFU LOC100653217 /// NTM (11731650_a_at) / Fold change /veh LOC100653217 /// NTM (11731650_a_at) / RFU MAPK11 (11762145_a_at) / Fold change /veh MAPK11 (11762145_a_at) / RFU FIZ1 (11724087_x_at) / Fold change /veh FIZ1 (11724087_x_at) / RFU OASL (11726364_x_at) / Fold change /veh OASL (11726364_x_at) / RFU SOX15 (11748057_x_at) / Fold change /veh SOX15 (11748057_x_at) / RFU CD79A (11719716_a_at) / Fold change /veh CD79A (11719716_a_at) / RFU HIST1H1D (11736915_at) / Fold change /veh HIST1H1D (11736915_at) / RFU CASKIN2 (11723855_a_at) / Fold change /veh CASKIN2 (11723855_a_at) / RFU LOC730098 (11760151_x_at) / Fold change /veh LOC730098 (11760151_x_at) / RFU OR4N2 (11742367_at) / Fold change /veh OR4N2 (11742367_at) / RFU PRRT2 (11749266_a_at) / Fold change /veh PRRT2 (11749266_a_at) / RFU SNX32 (11753110_a_at) / Fold change /veh SNX32 (11753110_a_at) / RFU CDHR5 (11726645_a_at) / Fold change /veh CDHR5 (11726645_a_at) / RFU RCAN1 (11760418_a_at) / Fold change /veh RCAN1 (11760418_a_at) / RFU FAM167A (11723789_a_at) / Fold change /veh FAM167A (11723789_a_at) / RFU FAM26E (11764081_at) / Fold change /veh FAM26E (11764081_at) / RFU ISYNA1 (11749810_s_at) / Fold change /veh ISYNA1 (11749810_s_at) / RFU ACY1 (11761880_at) / Fold change /veh ACY1 (11761880_at) / RFU 11764098_at / Fold change /veh 11764098_at / RFU SAMD14 (11745864_x_at) / Fold change /veh SAMD14 (11745864_x_at) / RFU NPB (11741838_a_at) / Fold change /veh NPB (11741838_a_at) / RFU TMPRSS6 (11731388_a_at) / Fold change /veh TMPRSS6 (11731388_a_at) / RFU KRTAP10-2 (11738614_at) / Fold change /veh KRTAP10-2 (11738614_at) / RFU ARHGAP8 /// PRR5-ARHGAP8 (11727945_x_at) / Fold change /veh ARHGAP8 /// PRR5-ARHGAP8 (11727945_x_at) / RFU KRTAP5-7 /// NADSYN1 (11734609_at) / Fold change /veh KRTAP5-7 /// NADSYN1 (11734609_at) / RFU RASL12 (11751679_a_at) / Fold change /veh RASL12 (11751679_a_at) / RFU CDKN2B (11736163_a_at) / Fold change /veh CDKN2B (11736163_a_at) / RFU PRF1 (11729649_at) / Fold change /veh PRF1 (11729649_at) / RFU, ZNF638 /// ZNF638-IT1 / Fold change vs veh, ZNF638 /// ZNF638-IT1 / RFU, PANK3 / Fold change vs veh, PANK3 / RFU, SH3YL1 / Fold change vs veh, SH3YL1 / RFU, ZEB2 / Fold change vs veh, ZEB2 / RFU, NRIP1 / Fold change vs veh, NRIP1 / RFU, PTTG1IP / Fold change vs veh, PTTG1IP / RFU, CAPN2 / Fold change vs veh, CAPN2 / RFU, MED14 / Fold change vs veh, MED14 / RFU, SNORA58 / Fold change vs veh, SNORA58 / RFU, C1orf63 / Fold change vs veh, C1orf63 / RFU, LRRFIP1 / Fold change vs veh, LRRFIP1 / RFU, NDUFAF7 / Fold change vs veh, NDUFAF7 / RFU, SLC12A2 / Fold change vs veh, SLC12A2 / RFU, IBTK / Fold change vs veh, IBTK / RFU, ESF1 / Fold change vs veh, ESF1 / Fold change vs veh, TMEM50B / RFU, TAOK1 / Fold change vs veh, TAOK1 / RFU, ACBD3 / Fold change vs veh, ACBD3 / RFU, TMA16 / Fold change vs veh, TMA16 / RFU, RWDD3 / Fold change vs veh, RWDD3 / RFU, BCAT1 / Fold change vs veh, BCAT1 / RFU, EDEM3 / Fold change vs veh, EDEM3 / RFU, TMEM33 / Fold change vs veh, TMEM33 / RFU, WDR75 / Fold change vs veh, WDR75 / RFU, AHCTF1 / Fold change vs veh, AHCTF1 / RFU, TFRC / Fold change vs veh, TFRC / RFU, ZDHHC17 / Fold change vs veh, ZDHHC17 / RFU, NOM1 / Fold change vs veh, NOM1 / RFU, ARL8B / Fold change vs veh, ARL8B / RFU, ZBTB11 / Fold change vs veh, ZBTB11 / RFU, TAMM41 / Fold change vs veh, TAMM41 / RFU, KIAA1704 /// LOC100996395 / Fold change vs veh, KIAA1704 /// LOC100996395 / RFU, ING1 / Fold change vs veh, ING1 / RFU, TRMT61B / Fold change vs veh, TRMT61B / RFU, FUBP3 / Fold change vs veh, FUBP3 / RFU, TP53 / Fold change vs veh, TP53 / RFU, TNKS2 / Fold change vs veh, TNKS2 / RFU, ZFP14 / Fold change vs veh, ZFP14 / RFU, ACTR2 / Fold change vs veh, ACTR2 / RFU, PPP3R1 / Fold change vs veh, PPP3R1 / RFU, PIK3R1 / Fold change vs veh, PIK3R1 / RFU, HNRNPA1 / Fold change vs veh, HNRNPA1 / RFU, RNF170 / Fold change vs veh, RNF170 / RFU, ZNF28 / Fold change vs veh, ZNF28 / RFU, RNGTT / Fold change vs veh, RNGTT / RFU, OGT / Fold change vs veh, OGT / RFU, BRD1 / Fold change vs veh, BRD1 / RFU, MARS / Fold change vs veh, MARS / RFU, ZNF655 / Fold change vs veh, ZNF655 / RFU, FAHD1 / Fold change vs veh, FAHD1 / RFU, BDP1 / Fold change vs veh, BDP1 / RFU, LRRCC1 / Fold change vs veh, LRRCC1 / RFU, ARID1A / Fold change vs veh, ARID1A / RFU, ZNF146 / Fold change vs veh, ZNF146 / RFU, ZNF330 / Fold change vs veh, ZNF330 / RFU, GPN3 / Fold change vs veh, GPN3 / RFU, C9orf123 / Fold change vs veh, C9orf123 / RFU, N4BP2L2 / Fold change vs veh, N4BP2L2 / RFU, ARFIP1 / Fold change vs veh, ARFIP1 / RFU, FAM179B / Fold change vs veh, FAM179B / RFU, BCL10 / Fold change vs veh, BCL10 / RFU, UHRF1BP1L / Fold change vs veh, UHRF1BP1L / RFU, BET1 / Fold change vs veh, BET1 / RFU, CNOT2 / Fold change vs veh, CNOT2 / RFU, ZNF268 / Fold change vs veh, ZNF268 / Fold change vs veh, ZNF507 / RFU, DGCR2 / Fold change vs veh, DGCR2 / RFU, WDSUB1 / Fold change vs veh, WDSUB1 / Fold change vs veh, HSP90B1 /// MIR3652 / RFU, ADSS / Fold change vs veh, ADSS / RFU, GK / Fold change vs veh, GK / RFU, ZNF148 / Fold change vs veh, ZNF148 / RFU, TAF9 / Fold change vs veh, TAF9 / RFU, SLC1A5 / Fold change vs veh, SLC1A5 / RFU, SLMO2 / Fold change vs veh, SLMO2 / RFU, ABCC4 / Fold change vs veh, ABCC4 / RFU, LOC101060439 /// RAP1B / Fold change vs veh, LOC101060439 /// RAP1B / RFU, RFX7 / Fold change vs veh, RFX7 / RFU, GTPBP10 / Fold change vs veh, GTPBP10 / RFU, CNEP1R1 / Fold change vs veh, CNEP1R1 / RFU, BIVM-ERCC5 /// ERCC5 / Fold change vs veh, BIVM-ERCC5 /// ERCC5 / RFU, ILF3 / Fold change vs veh, ILF3 / RFU 11762660_at / Fold change /veh 11762660_at / RFU VCAN (11757783_s_at) / Fold change /veh VCAN (11757783_s_at) / RFU DDX43 (11728927_at) / Fold change /veh DDX43 (11728927_at) / RFU KRT8 (11758188_x_at) / Fold change /veh KRT8 (11758188_x_at) / RFU NKD1 (11759106_at) / Fold change /veh NKD1 (11759106_at) / RFU SRD5A1 (11742802_a_at) / Fold change /veh SRD5A1 (11742802_a_at) / RFU TPSAB1 /// TPSB2 (11721975_s_at) / Fold change /veh TPSAB1 /// TPSB2 (11721975_s_at) / RFU GSTM3 (11746129_a_at) / Fold change /veh GSTM3 (11746129_a_at) / RFU IL23R (11737362_x_at) / Fold change /veh IL23R (11737362_x_at) / RFU TMEM51 (11727254_a_at) / Fold change /veh TMEM51 (11727254_a_at) / RFU PIWIL2 (11732686_x_at) / Fold change /veh PIWIL2 (11732686_x_at) / RFU ORM1 (11744905_x_at) / Fold change /veh ORM1 (11744905_x_at) / RFU CCDC152 (11743942_at) / Fold change /veh CCDC152 (11743942_at) / RFU ECM1 (11717891_a_at) / Fold change /veh ECM1 (11717891_a_at) / RFU IL23R (11748794_a_at) / Fold change /veh IL23R (11748794_a_at) / RFU TNFAIP8L3 (11732012_x_at) / Fold change /veh TNFAIP8L3 (11732012_x_at) / RFU MBOAT4 (11741988_at) / Fold change /veh MBOAT4 (11741988_at) / RFU 11764193_at / Fold change /veh 11764193_at / RFU TMEM53 (11763286_at) / Fold change /veh TMEM53 (11763286_at) / RFU MAGEB2 (11727129_at) / Fold change /veh MAGEB2 (11727129_at) / RFU TMEM200A (11744735_a_at) / Fold change /veh TMEM200A (11744735_a_at) / RFU CCDC152 (11751479_a_at) / Fold change /veh CCDC152 (11751479_a_at) / RFU FAM211A (11726209_a_at) / Fold change /veh FAM211A (11726209_a_at) / RFU RGS16 (11746705_a_at) / Fold change /veh RGS16 (11746705_a_at) / RFU VCAN (11755009_s_at) / Fold change /veh VCAN (11755009_s_at) / RFU RHOB (11743442_s_at) / Fold change /veh RHOB (11743442_s_at) / RFU RGS16 (11720943_a_at) / Fold change /veh RGS16 (11720943_a_at) / RFU RGS16 (11720944_at) / Fold change /veh RGS16 (11720944_at) / RFU, VPS4B / Fold change vs veh, VPS4B / RFU, CREB1 / Fold change vs veh, CREB1 / RFU, DNAJC13 / Fold change vs veh, DNAJC13 / RFU, GNAQ / Fold change vs veh, GNAQ / RFU, CDK5R1 / Fold change vs veh, CDK5R1 / RFU, ZRANB3 / Fold change vs veh, ZRANB3 / RFU, CUL4A / Fold change vs veh, CUL4A / RFU, CCNY / Fold change vs veh, CCNY / RFU, UFL1 / Fold change vs veh, UFL1 / RFU, COG3 / Fold change vs veh, COG3 / RFU, DIAPH2 / Fold change vs veh, DIAPH2 / RFU, SKA2 / Fold change vs veh, SKA2 / RFU, AFF3 / Fold change vs veh, AFF3 / RFU, LMF1 / Fold change vs veh, LMF1 / RFU, IPO11 / Fold change vs veh, IPO11 / RFU, DFFB / Fold change vs veh, DFFB / RFU, FOXP1 / Fold change vs veh, FOXP1 / RFU, CARD8 / Fold change vs veh, CARD8 / RFU, STRN3 / Fold change vs veh, STRN3 / RFU, ADK / Fold change vs veh, ADK / RFU, RASSF2 / Fold change vs veh, RASSF2 / RFU, WIPF1 / Fold change vs veh, WIPF1 / RFU, LARP1B / Fold change vs veh, LARP1B / RFU, RASA1 / Fold change vs veh, RASA1 / RFU, RB1 / Fold change vs veh, RB1 / RFU, PPFIA1 / Fold change vs veh, PPFIA1 / RFU, MAT2A / Fold change vs veh, MAT2A / RFU, CCT5 / Fold change vs veh, CCT5 / RFU, WDR92 / Fold change vs veh, WDR92 / RFU, CUX1 / Fold change vs veh, CUX1 / RFU, TTC7A / Fold change vs veh, TTC7A / RFU, TMEM135 / Fold change vs veh, TMEM135 / RFU, DEPTOR / Fold change vs veh, DEPTOR / RFU, CPM / Fold change vs veh, CPM / RFU, DNAJB6 / Fold change vs veh, DNAJB6 / RFU, CACNA2D3 / Fold change vs veh, CACNA2D3 / RFU, DTX4 / Fold change vs veh, DTX4 / RFU, TFCP2 / Fold change vs veh, TFCP2 / RFU, GMCL1 /// GMCL1P1 / Fold change vs veh, GMCL1 /// GMCL1P1 / RFU, AEBP2 / Fold change vs veh, AEBP2 / RFU, SNHG1 /// SNORD22 /// SNORD25 /// SNORD26 /// SNORD27 /// SNORD28 /// SNORD29 /// SNORD31 / Fold change vs veh, SNHG1 /// SNORD22 /// SNORD25 /// SNORD26 /// SNORD27 /// SNORD28 /// SNORD29 /// SNORD31 / Fold change (Aza/veh), C12orf56 (ProbeSet 11735607_a_at) / Fold change (ACY-1035/veh), C12orf56 (ProbeSet 11735607_a_at) / Fold change (Aza/veh), FGFR1OP (ProbeSet 11751329_s_at) / Fold change (ACY-1035/veh), FGFR1OP (ProbeSet 11751329_s_at) / Fold change (Aza/veh), VPS36 (ProbeSet 11739960_a_at) / Fold change (ACY-1035/veh), VPS36 (ProbeSet 11739960_a_at) / RFU SYPL1 (11715823_x_at) / Fold change /veh SYPL1 (11715823_x_at) / RFU IGFBP7 (11715501_s_at) / Fold change /veh IGFBP7 (11715501_s_at) / RFU REEP3 (11722064_at) / Fold change /veh REEP3 (11722064_at) / RFU IGLL1 (11728026_x_at) / Fold change /veh IGLL1 (11728026_x_at): dose or concentration left out as unconfirmed
Details: ProbeSet 11748670_a_at; LIST B

Nc1ccc(-c2cccs2)cc1NC(=O)c1ccc2c(c1)cc(C1CC1)n2CCN1CCOCC1 [ACY-1035]
Fold change vs veh, PIK3R1: 0.90

Reference: paper PMC5218480 (PLoS ONE, 2017)
